Measured values as given in paper PMC9822022, “Biginelli Reaction Synthesis of Novel Multitarget-Directed Ligands with Ca^2+ Channel Blocking Ability, Cholinesterase Inhibition, Antioxidant Capacity, and Nrf2 Activation” (Molecules, 2022).
Values joined by “and” are separate entries in the source; they are usually repeats but may differ in a detail not shown here. Equal entries are not always repeated.

What was measured:
[1] = molecular target: T1, hAChE (AChE from human erythrocytes) (Homo sapiens, UniProt P22303); assay: biochemical; format: biochemical; conditions: for IC50: ± SD
T1 construct: AChE from human erythrocytes; purchased Sigma Aldrich; host or cells: human erythrocytes (natural source)
T1 sequence (P22303 other isoform, or with tags, fused parts or gaps): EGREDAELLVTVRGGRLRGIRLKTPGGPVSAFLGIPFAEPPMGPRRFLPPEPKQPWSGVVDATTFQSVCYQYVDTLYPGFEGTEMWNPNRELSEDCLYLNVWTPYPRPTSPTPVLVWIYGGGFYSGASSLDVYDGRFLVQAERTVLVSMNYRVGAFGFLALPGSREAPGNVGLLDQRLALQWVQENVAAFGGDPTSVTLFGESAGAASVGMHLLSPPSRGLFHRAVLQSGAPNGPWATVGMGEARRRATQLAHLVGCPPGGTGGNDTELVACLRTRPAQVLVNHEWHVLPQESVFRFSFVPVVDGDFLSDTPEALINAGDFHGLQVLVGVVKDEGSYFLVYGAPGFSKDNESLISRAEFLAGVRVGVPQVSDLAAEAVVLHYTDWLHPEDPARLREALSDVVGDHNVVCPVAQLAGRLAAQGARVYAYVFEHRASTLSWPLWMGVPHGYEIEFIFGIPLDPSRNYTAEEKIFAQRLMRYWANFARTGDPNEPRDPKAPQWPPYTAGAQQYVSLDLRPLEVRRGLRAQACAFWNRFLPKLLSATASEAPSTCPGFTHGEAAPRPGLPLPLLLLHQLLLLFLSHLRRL
Procedure: The inhibitory capacity of the compounds on AChE biological activity was evaluated using the spectrometric method of Ellman [27]. Acetyl- or butyrylthiocholine iodide and 5,5-dithiobis- (2-nitrobenzoic) acid (DTNB) were purchased from Sigma Aldrich. […] AChE from human erythrocytes (buffered aqueous solution, ≥500 units/mg protein (BCA), Sigma Aldrich) was diluted in 20 mM HEPES buffer, pH 8, 0.1% Triton X-100, to obtain an enzyme solution with 0.25 unit/mL enzyme activity. In the procedure, 100 µL of 0.3 mM DTNB dissolved in phosphate buffer pH 7.4 was added to the 96-well plate followed by 50 µL of test compound solution and 50 µL of enzyme (0.05 U final). After 5 min of preincubation at 25 °C, the reaction was then initiated by the injection of 50 µL of 10 mM acetyl- or butyrylthiocholine iodide solution. […] Assays were performed in singlicate during three independent tests, with a blank containing all components except acetyl- or butyrylthiocholine in order to account for non-enzymatic reaction. The reaction slopes were compared, and the percent inhibition due to the presence of test compounds was calculated by the following: 100 − (vi/v0 × 100) where vi is the rate calculated in the presence of inhibitor and v0 is the enzyme activity.

[2] = molecular target: eqBuChE (BuChE from equine serum) (Equus caballus, UniProt P81908); assay: biochemical; conditions: ± SD
Sequence of eqBuChE (BuChE from equine serum) (P81908 whole entry): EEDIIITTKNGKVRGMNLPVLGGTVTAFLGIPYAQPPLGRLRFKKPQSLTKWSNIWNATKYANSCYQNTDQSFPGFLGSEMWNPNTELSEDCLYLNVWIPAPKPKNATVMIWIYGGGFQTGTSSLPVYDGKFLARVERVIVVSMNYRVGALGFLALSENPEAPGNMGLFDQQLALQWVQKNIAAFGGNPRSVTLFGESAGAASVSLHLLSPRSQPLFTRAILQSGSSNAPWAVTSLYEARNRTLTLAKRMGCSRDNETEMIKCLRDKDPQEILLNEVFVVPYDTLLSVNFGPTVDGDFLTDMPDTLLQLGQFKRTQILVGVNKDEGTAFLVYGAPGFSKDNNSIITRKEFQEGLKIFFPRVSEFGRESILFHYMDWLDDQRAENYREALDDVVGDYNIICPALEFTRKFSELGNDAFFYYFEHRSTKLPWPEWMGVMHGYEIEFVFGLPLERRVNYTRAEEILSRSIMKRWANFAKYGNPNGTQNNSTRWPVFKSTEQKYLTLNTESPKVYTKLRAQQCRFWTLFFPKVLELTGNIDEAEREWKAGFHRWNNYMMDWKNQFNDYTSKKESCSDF

[3] = ORAC-FL antioxidant assay; conditions: for ORAC: Trolox equivalents, mean (n = 3) ± SEM; for times less active than melatonin (ORAC): on average
Procedure: The antioxidant activity of compounds BIGI 4a-d and BIGI 5a-d was determined by the ORAC-FL method. [29] Their radical scavenging properties are expressed as Trolox equivalents (TE) units.
The antioxidant activity of hybrids BIGI 4a-d and BIGI 5a-d was measured by ORAC-FL assay using fluorescein as a fluorescent probe. Briefly, fluorescein and antioxidant were incubated in a black 96-well microplate (Nunc) for 15 min at 37 °C. 2,2′-Azobis(amidinopropane) dihydrochloride was then added quickly using the built-in injector of a Varioskan Flash plate reader (Thermo Scientific, Waltham, MA, USA). […] All the reactions were made in triplicate and at least three different assays were performed for each sample.

[4] = tested on: calcium channel; assay: Ca+2 channel blockade, FLIPR Calcium 6 in SH-SY5Y cells; format: cell-based; conditions: KCl/CaCl2 triggered, ± SD
Procedure: The Ca^+2 channel blockade capacity of compounds BIGI 4a-d and BIGI 5a-d, and nimodipine as standard, at 10 μM concentration was carried out following the usual methodology [28].
The evaluation of the calcium channel blockade of compounds BIGI 4a-d and BIGI 5a-d was carried out using FLIPR Calcium 6 indicator according to previously described protocols [35, 36]. In brief, FLIPR-loaded SH-SY5Y cells were exposed to nimodipine (10 µM, reference inhibitor), DMSO (0.1%, vehicle), or our compounds of interest (10 µM) for 10 min. […] Data were gathered in three independent experiments with eight technical replicates per experiment. Outlier detection by Grubbs’ test was performed and outlying values were excluded from further analysis.

[5] = tested on: AREc32 cells; assay: Cytotoxicity against reporter cells (MTT); format: cell-based
Procedure: […]. Preliminarily, the cytotoxicity of compounds against AREc32 cells were evaluated, showing no toxicity until 50 μM for compounds BIGI 4b, BIGI 4d, and BIGI 5b and until 100 μM for compound BIGI 5d.
Treatment of stable ARE-luciferase reporter cells with the tested compounds and evaluation of the cellular viability: The NRF2/ARE-luciferase reporter HEK293 stable cell line was seeded and treated as described for the luciferase activity determination, except that transparent culture plates were used instead of white plates. After 24 h of incubation with the tested compounds, the percent of cell viability was measured using MTT assay.

[6] = tested on: Nrf2-ARE; assay: Nrf2/ARE-luciferase reporter cell assay; format: cell-based; conditions: for Induction of the Nrf2 transcriptional pathway: 24 h, 5, 10 and 50 μM (up to 100 μM for BIGI 5d); for CD (concentration required to double the specific luciferase reporter activity): 24 h treatment, means ± SEM
Procedure: The Nrf2-ARE-activating effect of BIGI 4b, BIGI 4d, BIGI 5b, and BIGI 5d, the most balanced compounds against cholinesterase inhibition, calcium channel blockade, and antioxidant power, was determined in vitro using a cell-based luciferase assay in the AREc32 cell line, which represents a good model for the redox-dependent activation of Nrf2 [31]. TBHQ was used as the positive control.
AREc32 cells were treated over 24 h with increasing concentrations of each compound (5, 10, 50, 100 μM) and then luciferase activity was measured. Preliminarily, the cytotoxicity of compounds against AREc32 cells were evaluated, showing no toxicity until 50 μM for compounds BIGI 4b, BIGI 4d, and BIGI 5b and until 100 μM for compound BIGI 5d.
CD values (i.e., the concentration required to double the specific activity of the luciferase reporter) were calculated to compare the relative potencies.
Treatment of stable ARE-luciferase reporter cells with the tested compounds and evaluation of the luciferase activity: The NRF2/ARE-luciferase reporter HEK293 stable cell line (Signosis, Santa Clara, CA, USA) was maintained in Dulbecco’s MEM high-glucose (DMEM) medium supplemented with 10% FBS and penicillin–streptomycin at 37 °C in 95% air/5% CO2. For treatment, the cells were seeded at a density of 2 × 10^4 per well in 96-well white microtiter plates. After 48 h, the culture medium was replaced with fresh DMEM supplemented with 0.1% FBS containing different concentrations of the tested compounds or DMSO (0.1%) in duplicate. Luciferase activity was measured after 24 h of treatment using the Bright-Glo luciferase assay system (Promega) according to the manufacturer’s instructions.

[7] = tested on: Nrf2-ARE; parameters: method as in PMID 31838896; conditions: cited from earlier work

C#CCOc1ccc(C2NC(=O)N(CC3CCN(Cc4ccccc4)CC3)C(C)=C2C(=O)OCC)cc1 (stereo not shown) [BIGI 4a, Ethyl 1-((1-benzylpiperidin-4-yl)methyl)-6-methyl-2-oxo-4-(4-(prop-2-yn-1-yloxy)phenyl)-1,2,3,4-tetrahydropyrimidine-5-carboxylate]
IC50 [1]: > 1 µM | IC50 [2]: 31.2 ± 1.7 µM | ORAC [3]: 1.44 ± 0.06 TE | Calcium Antagonism (% Inhibition at 10 μM) [4]: 45 ± 11%

COCCOC(=O)C1=C(C)NC(C)=C(C(=O)OC(C)C)C1c1cccc([N+](=O)[O-])c1 (stereo not shown) [Nimodipine, reference compound]
Calcium Antagonism (% Inhibition at 10 μM) [4]: 50± 10%

C#CCOc1ccc(C2NC(=S)N(CCC3CCN(Cc4ccccc4)CC3)C(C)=C2C(=O)OCC)cc1 (stereo not shown) [BIGI 5b, Ethyl 1-(2-(1-benzylpiperidin-4-yl)ethyl)-6-methyl-4-(4-(prop-2-yn-1-yloxy)phenyl)-2-thioxo-1,2,3,4-tetrahydropyrimidine-5-carboxylate]
fold less active than Donepezil (hAChE) [1]: 27 fold | IC50 [1]: 0.352 ± 0.015 µM | IC50 [2]: 5.43 ± 0.24 µM | ORAC [3]: 1.41 ± 0.06 TE | Cytotoxicity: no toxicity until concentration [5]: 50 µM | Calcium Antagonism (% Inhibition at 10 μM) [4]: 74 ± 16% | Induction of the Nrf2 transcriptional pathway [6]: able to successfully induce the Nrf2 transcriptional pathway | CD (concentration required to double the specific luciferase reporter activity) [6]: 13.5 µM and 13.5 ± 9.1 µM

CC(C)(C)c1cc(O)ccc1O [TBHQ, reference compound]
CD (concentration required to double the specific luciferase reporter activity) [6]: 0.8 µM and 0.8 ± 0.2 µM

C#CCOc1ccc(C2NC(=O)N(CCC3CCN(Cc4ccccc4)CC3)C(C)=C2C(=O)OCC)cc1 (stereo not shown) [BIGI 4b, Ethyl 1-(2-(1-benzylpiperidin-4-yl)ethyl)-6-methyl-2-oxo-4-(4-(prop-2-yn-1-yloxy)phenyl)-1,2,3,4-tetrahydropyrimidine-5-carboxylate]
fold less active than Donepezil (hAChE) [1]: 27 fold | IC50 [1]: 0.342 ± 0.064 µM | IC50 [2]: 4.78 ± 0.58 µM | ORAC [3]: 1.60 TE and 1.60 ± 0.15 TE | times less active than melatonin (ORAC) [3]: ~1.4 times | Cytotoxicity: no toxicity until concentration [5]: 50 µM | Calcium Antagonism (% Inhibition at 10 μM) [4]: 67 ± 10% | Induction of the Nrf2 transcriptional pathway [6]: able to successfully induce the Nrf2 transcriptional pathway | CD (concentration required to double the specific luciferase reporter activity) [6]: 7.1 µM and 7.1 ± 0.8 µM

C#CCCOc1ccc(C2NC(=O)N(CCC3CCN(Cc4ccccc4)CC3)C(C)=C2C(=O)OCC)cc1 (stereo not shown) [BIGI 4d, Ethyl 1-(2-(1-benzylpiperidin-4-yl)ethyl)-4-(4-(but-3-yn-1-yloxy)phenyl)-6-methyl-2-oxo-1,2,3,4-tetrahydropyrimidine-5-carboxylate]
IC50 [1]: 0.462 ± 0.04 µM | IC50 [2]: 6.63 ± 0.71 µM | ORAC [3]: 1.85 TE and 1.85 ± 0.16 TE | times less active than melatonin (ORAC) [3]: ~1.4 times | Cytotoxicity: no toxicity until concentration [5]: 50 µM | Calcium Antagonism (% Inhibition at 10 μM) [4]: 50 ± 13% | Induction of the Nrf2 transcriptional pathway [6]: able to successfully induce the Nrf2 transcriptional pathway | CD (concentration required to double the specific luciferase reporter activity) [6]: 7.7 µM and 7.7 ± 2.9 µM

C#CCCOc1ccc(C2NC(=S)N(CC3CCN(Cc4ccccc4)CC3)C(C)=C2C(=O)OCC)cc1 (stereo not shown) [BIGI 5c, Ethyl 1-((1-benzylpiperidin-4-yl)methyl)-4-(4-(but-3-yn-1-yloxy)phenyl)-6-methyl-2-thioxo-1,2,3,4-tetrahydropyrimidine-5-carboxylate]
IC50 [1]: > 1 µM | IC50 [2]: 33.8 ± 7.89 µM | ORAC [3]: 1.75 TE and 1.75 ± 0.06 TE | times less active than melatonin (ORAC) [3]: ~1.4 times | Calcium Antagonism (% Inhibition at 10 μM) [4]: 63 ± 18%

C#CCOc1ccc(C2NC(=S)N(CC3CCN(Cc4ccccc4)CC3)C(C)=C2C(=O)OCC)cc1 (stereo not shown) [BIGI 5a, Ethyl 1-((1-benzylpiperidin-4-yl)methyl)-6-methyl-4-(4-(prop-2-yn-1-yloxy)phenyl)-2-thioxo-1,2,3,4-tetrahydropyrimidine-5-carboxylate]
IC50 [1]: > 1 µM | IC50 [2]: 7.64 ± 0.79 µM | ORAC [3]: 1.35 ± 0.04 TE | Calcium Antagonism (% Inhibition at 10 μM) [4]: 46 ± 18%

C#CCCOc1ccc(C2NC(=S)N(CCC3CCN(Cc4ccccc4)CC3)C(C)=C2C(=O)OCC)cc1 (stereo not shown) [BIGI 5d, Ethyl 1-(2-(1-benzylpiperidin-4-yl)ethyl)-4-(4-(but-3-yn-1-yloxy)phenyl)-6-methyl-2-thioxo-1,2,3,4-tetrahydropyrimidine-5-carboxylate]
IC50 [1]: 1.271 ± 0.005 µM | IC50 [2]: 8.54 ± 0.71 µM | ORAC [3]: 1.57 ± 0.13 TE | Cytotoxicity: no toxicity until concentration [5]: 100 µM | Calcium Antagonism (% Inhibition at 10 μM) [4]: 68 ± 12% | fold less active than TBHQ (CD) [6]: 42 fold | times more active than melatonin (CD) [6]: 2 times | Induction of the Nrf2 transcriptional pathway [6]: able to successfully induce the Nrf2 transcriptional pathway | CD (concentration required to double the specific luciferase reporter activity) [6]: 33.4 ± 4.8 µM | CD (concentration required to double the specific luciferase reporter activity) ([6]; listed as 5d): 33.4 µM

COc1ccc2[nH]cc(CCNC(C)=O)c2c1 [Melatonin]
CD [7]: 60 µM

C#CCCOc1ccc(C2NC(=O)N(CC3CCN(Cc4ccccc4)CC3)C(C)=C2C(=O)OCC)cc1 (stereo not shown) [BIGI 4c, Ethyl 1-((1-benzylpiperidin-4-yl)methyl)-4-(4-(but-3-yn-1-yloxy)phenyl)-6-methyl-2-oxo-1,2,3,4-tetrahydropyrimidine-5-carboxylate]
IC50 [1]: > 1 µM | IC50 [2]: > 10 µM | ORAC [3]: 0.98 ± 0.03 TE | Calcium Antagonism (% Inhibition at 10 μM) [4]: 40± 13%
